Experimental data from ChEMBL document CHEMBL1159201, “Microbial biotransformation of veratramine” (J Nat Prod, 1998).
Converted amounts (≈) assume the structure as drawn.

Key:
[1] = tested on: Plasmodium falciparum; test: Antiplasmodial activity against Plasmodium falciparum W2; format: functional, organism-based
[2] = tested on: Vero; test: Cytotoxicity against african green monkey Vero cells; format: cell-based; conditions: chlorocebus sabaeus

Row | IC50 [1] | SMILES | Activity [2]
1 | 3.6 mg/L (≈ 8.88 µM) | Cc1c([C@H](C)[C@@H]2NC[C@@H](C)C[C@H]2O)ccc2c1C[C@H]1[C@H]2CCC2=CC(=O)C=C[C@@]21C | Non-toxic
2 |  | Cc1c([C@H](C)[C@@H]2NC[C@@H](C)C[C@H]2O)ccc2c1C[C@H]1[C@H]2CCC2=CC(=O)CC[C@@]21C | Non-toxic
3 |  | Cc1c([C@H](C)[C@@H]2NC[C@@H](C)C[C@H]2O)ccc2c1C[C@H]1[C@H]2CC[C@H]2CC(=O)CC[C@@]21C [DIHYDROVERATRAM-3-ONE] | Non-toxic
4 |  | Cc1c([C@H](C)[C@@H]2NC[C@@H](C)C[C@H]2O)ccc2c1C[C@H]1[C@H]2CC=C2C[C@@H](O)CC[C@@]21C [VERATRAMINE] | Non-toxic
